Results as given in ChEMBL document CHEMBL3994649, “Piceatannol, a natural trans-stilbene compound, inhibits human glyoxalase I” (Bioorg Med Chem Lett, 2017).
Active and inactive are the calls of the source. The rule behind the calls is not given here.

How the values were obtained:
Lactoylglutathione lyase [1] = target: T1, Lactoylglutathione lyase (Homo sapiens, UniProt Q04760); experiment: Inhibition of human N-terminal His6-tagged GLO1 expressed in baculovirus infected sf21 cells assessed as reduction in S-D-lactoylglutathione formation at 100 uM measured for 5 mins in presence of glutathione by spectrophotometric method
Target sequence in this assay (Q04760 2-184 limits assumed): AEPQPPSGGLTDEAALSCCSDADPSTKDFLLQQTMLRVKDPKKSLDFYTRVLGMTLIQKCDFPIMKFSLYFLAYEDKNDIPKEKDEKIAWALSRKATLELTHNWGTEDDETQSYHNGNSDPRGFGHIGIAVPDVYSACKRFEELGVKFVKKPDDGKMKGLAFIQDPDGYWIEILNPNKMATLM

Lactoylglutathione lyase [2] = target: T1, Lactoylglutathione lyase; experiment: Potency index, ratio of baicalein IC50 to compound IC50 for human N-terminal His6-tagged GLO1 expressed in baculovirus infected sf21 cells
Target sequence in this assay (Q04760 2-184 limits assumed): as above

NCI-H522 [3] = experiment: Antiproliferative activity against human NCI-H522 cells after 72 hrs by WST8 assay; format: functional, cell-based; conditions: NCI-H522, 72 h
Lactoylglutathione lyase [4] = target: T1, Lactoylglutathione lyase; experiment: Inhibition of human N-terminal His6-tagged GLO1 expressed in baculovirus infected sf21 cells assessed as reduction in S-D-lactoylglutathione formation measured for 5 mins in presence of glutathione by spectrophotometric method
Target sequence in this assay (Q04760 whole entry): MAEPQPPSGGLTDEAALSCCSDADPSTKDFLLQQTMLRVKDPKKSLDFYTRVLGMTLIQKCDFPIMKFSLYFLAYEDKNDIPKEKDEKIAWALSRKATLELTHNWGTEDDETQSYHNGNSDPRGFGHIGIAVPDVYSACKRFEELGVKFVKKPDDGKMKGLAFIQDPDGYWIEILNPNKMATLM

NCI-H522 [5] = experiment: Antiproliferative activity against human NCI-H522 cells overexpressing human GLO1 at 10 to 30 uM after 72 hrs by WST8 assay; format: functional, cell-based
NCI-H522 [6] = experiment: Antiproliferative activity against human NCI-H522 cells after 24 hrs by WST8 assay; format: functional, cell-based; conditions: NCI-H522, 24 h
NCI-H522 [7] = experiment: Antiproliferative activity against human NCI-H522 cells after 48 hrs by WST8 assay; format: functional, cell-based; conditions: NCI-H522, 48 h
NCI-H460 = experiment: Antiproliferative activity against human NCI-H460 cells at 50 uM after 24 to 72 hrs by WST8 assay; format: functional, cell-based

Structure (SMILES) | inhibition (Lactoylglutathione lyase [1]) | Ratio IC50 (Lactoylglutathione lyase [2]) | EC50 (NCI-H522 [3]) [µM] | IC50 (Lactoylglutathione lyase [4]) [nM] | Activity (NCI-H522 [5]) | EC50 (NCI-H522 [6]) [µM] | EC50 (NCI-H522 [7]) [µM] | Activity (NCI-H460)
COc1cc(/C=C/c2ccc(OC)c(OC)c2)cc(OC)c1 | Active | – | – | – | – | – | – | –
Oc1cc(O)cc(/C=C/c2ccc(O)c(O)c2)c1 [PICEATANNOL] | Active | 14 | 17 | 760 | inactive | 53 | 23 | inactive
